Key:
Assay in all cases: relative viability vs DMSO control (72 h) (fraction); higher = more viable cells
[1] = system: SW872
Summary of the method: (§1)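 Sarcoma cell lines went into 384-well plates at densities chosen to reach 80–90% confluence. After 24 h, each well received 2.5 µl of serially diluted compound, with source plates running from 10 mM to 0.0002 mM, and the plates were kept 72 h at 37 °C, 5% CO2, alongside 0.1% DMSO vehicle and a 5 µM positive control. Relative viability was derived from ATPLite readings as percent growth and averaged over up to triplicate wells. The data were then rescaled so that 1 stands for full and 0 for none.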

[2] = system: KHOS-240S
Summary of the method: as §1

[3] = system: SK-LMS-1
Summary of the method: as §1

[4] = system: SW1353
Summary of the method: as §1

[5] = system: RD-ES
Summary of the method: as §1

[6] = system: HT1080
Summary of the method: as §1

[7] = system: RD
Summary of the method: as §1

[8] = system: SYO-1
Summary of the method: as §1

[9] = system: G401
Summary of the method: as §1

[10] = system: HS729
Summary of the method: as §1

[11] = system: SW684
Summary of the method: as §1

[12] = system: KHOS-NP
Summary of the method: as §1

C1=N/C2=N/c3ccc(OCCN4CCCC4)c(c3)COC/C=C/COCc3cccc(c3)C(=C1)N2 [Pacritinib]
Details	relative viability
[1], 0.00017 µM	1.11
[1], 0.00051 µM	1.08
[1], 0.00152 µM	1.08
[1], 0.00457 µM	1.1
[1], 0.01372 µM	1.1
[1], 0.04115 µM	1.06
[1], 0.1235 µM	1.02
[1], 0.3704 µM	0.839
[1], 1.111 µM	0.541
[1], 3.333 µM	0.131
[1], 10 µM	0.0932
[2], 0.00017 µM	1.05
[2], 0.00051 µM	1.08
[2], 0.00152 µM	1.08
[2], 0.00457 µM	1.08
[2], 0.01372 µM	1.09
[2], 0.04115 µM	1.06
[2], 0.1235 µM	1.06
[2], 0.3704 µM	0.985
[2], 1.111 µM	0.5636
[2], 3.333 µM	0.0954
[2], 10 µM	0.108
[3], 0.00017 µM	1.1
[3], 0.00051 µM	1.136
[3], 0.00152 µM	1.08
[3], 0.00457 µM	1.085
[3], 0.01372 µM	1.08
[3], 0.04115 µM	1.08
[3], 0.1235 µM	1.1
[3], 0.3704 µM	1.116
[3], 1.111 µM	0.959
[3], 3.333 µM	0.539
[3], 10 µM	0.2186
[4], 0.00017 µM	1.06
[4], 0.00051 µM	1.091
[4], 0.00152 µM	1.08
[4], 0.00457 µM	1.03
[4], 0.01372 µM	1
[4], 0.04115 µM	0.981
[4], 0.1235 µM	0.966
[4], 0.3704 µM	0.882
[4], 1.111 µM	0.775
[4], 3.333 µM	0.178
[4], 10 µM	0.0164
[5], 0.00017 µM	1
[5], 0.00051 µM	1.03
[5], 0.00152 µM	1.04
[5], 0.00457 µM	1.01
[5], 0.01372 µM	1.03
[5], 0.04115 µM	1
[5], 0.1235 µM	0.967
[5], 0.3704 µM	0.821
[5], 1.111 µM	0.437
[5], 3.333 µM	0.109
[5], 10 µM	0.165
[6], 0.00017 µM	1.09
[6], 0.00051 µM	1.07
[6], 0.00152 µM	1.09
[6], 0.00457 µM	1.09
[6], 0.01372 µM	1.08
[6], 0.04115 µM	1.09
[6], 0.1235 µM	1.08
[6], 0.3704 µM	1.12
[6], 1.111 µM	0.925
[6], 3.333 µM	0.169
[6], 10 µM	0.101
[7], 0.00017 µM	1.08
[7], 0.00051 µM	1.1
[7], 0.00152 µM	1.12
[7], 0.00457 µM	1.11
[7], 0.01372 µM	1.13
[7], 0.04115 µM	1.111
[7], 0.1235 µM	1.07
[7], 0.3704 µM	0.823
[7], 1.111 µM	0.462
[7], 3.333 µM	0.158
[7], 10 µM	0.144
[8], 0.00017 µM	1.01
[8], 0.00051 µM	1.01
[8], 0.00152 µM	0.997
[8], 0.00457 µM	0.985
[8], 0.01372 µM	1.01
[8], 0.04115 µM	0.952
[8], 0.1235 µM	0.932
[8], 0.3704 µM	0.748
[8], 1.111 µM	0.244
[8], 3.333 µM	0.0093
[8], 10 µM	0.00973
[9], 0.00017 µM	1.05
[9], 0.00051 µM	1.09
[9], 0.00152 µM	1.02
[9], 0.00457 µM	1.06
[9], 0.01372 µM	1.03
[9], 0.04115 µM	1
[9], 0.1235 µM	0.966
[9], 0.3704 µM	0.868
[9], 1.111 µM	0.552
[9], 3.333 µM	0.044
[9], 10 µM	0.0119
[10], 0.00017 µM	1.1
[10], 0.00051 µM	1.055
[10], 0.00152 µM	1.03
[10], 0.00457 µM	1
[10], 0.01372 µM	1.02
[10], 0.04115 µM	0.9592
[10], 0.1235 µM	0.947
[10], 0.3704 µM	0.928
[10], 1.111 µM	0.698
[10], 3.333 µM	0.576
[10], 10 µM	0.232
[11], 0.00017 µM	1.14
[11], 0.00051 µM	1.17
[11], 0.00152 µM	1.15
[11], 0.00457 µM	1.19
[11], 0.01372 µM	1.15
[11], 0.04115 µM	1.11
[11], 0.1235 µM	0.977
[11], 0.3704 µM	0.781
[11], 1.111 µM	0.544
[11], 3.333 µM	0.189
[11], 10 µM	0.0544
[12], 0.00017 µM	1.09
[12], 0.00051 µM	1.12
[12], 0.00152 µM	1.107
[12], 0.00457 µM	1.11
[12], 0.01372 µM	1.125
[12], 0.04115 µM	1.117
[12], 0.1235 µM	1.116
[12], 0.3704 µM	1.112
[12], 1.111 µM	0.996
[12], 3.333 µM	0.451
[12], 10 µM	0.516

NC(=O)c1cnc2[nH]ccc2c1N[C@@H]1[C@@H]2CC3C[C@H]1C[C@@](O)(C3)C2 [Peficitinib]
Details	relative viability
[1], 0.00017 µM	1.01
[1], 0.00051 µM	1.03
[1], 0.00152 µM	1.037
[1], 0.00457 µM	0.985
[1], 0.01372 µM	1.033
[1], 0.04115 µM	1.03
[1], 0.1235 µM	1.02
[1], 0.3704 µM	0.996
[1], 1.111 µM	0.999
[1], 3.333 µM	0.932
[1], 10 µM	0.767
[2], 0.00017 µM	1.01
[2], 0.00051 µM	1.05
[2], 0.00152 µM	1.04
[2], 0.00457 µM	1.05
[2], 0.01372 µM	1.06
[2], 0.04115 µM	1.07
[2], 0.1235 µM	1.05
[2], 0.3704 µM	1.04
[2], 1.111 µM	1.03
[2], 3.333 µM	0.837
[2], 10 µM	0.498
[3], 0.00017 µM	1.09
[3], 0.00051 µM	1.09
[3], 0.00152 µM	1.05
[3], 0.00457 µM	1.076
[3], 0.01372 µM	1.1
[3], 0.04115 µM	1.07
[3], 0.1235 µM	1.08
[3], 0.3704 µM	1.08
[3], 1.111 µM	1.13
[3], 3.333 µM	1.11
[3], 10 µM	0.965
[4], 0.00017 µM	1.03
[4], 0.00051 µM	1.05
[4], 0.00152 µM	1.01
[4], 0.00457 µM	1.012
[4], 0.01372 µM	1.04
[4], 0.04115 µM	1.07
[4], 0.1235 µM	1.04
[4], 0.3704 µM	1.08
[4], 1.111 µM	1.09
[4], 3.333 µM	1.09
[4], 10 µM	0.988
[5], 0.00017 µM	0.973
[5], 0.00051 µM	0.99
[5], 0.00152 µM	0.968
[5], 0.00457 µM	0.963
[5], 0.01372 µM	0.984
[5], 0.04115 µM	0.981
[5], 0.1235 µM	1
[5], 0.3704 µM	1.01
[5], 1.111 µM	1
[5], 3.333 µM	0.986
[5], 10 µM	0.227
[6], 0.00017 µM	1.058
[6], 0.00051 µM	1.05
[6], 0.00152 µM	1.06
[6], 0.00457 µM	1.03
[6], 0.01372 µM	1.03
[6], 0.04115 µM	1.06
[6], 0.1235 µM	1.06
[6], 0.3704 µM	1.11
[6], 1.111 µM	1.22
[6], 3.333 µM	1.35
[6], 10 µM	1.29
[7], 0.00017 µM	1.03
[7], 0.00051 µM	1.04
[7], 0.00152 µM	1.04
[7], 0.00457 µM	1.04
[7], 0.01372 µM	1.03
[7], 0.04115 µM	1.05
[7], 0.1235 µM	1.07
[7], 0.3704 µM	1.1
[7], 1.111 µM	1.117
[7], 3.333 µM	1.099
[7], 10 µM	1.01
[8], 0.00017 µM	1
[8], 0.00051 µM	0.981
[8], 0.00152 µM	0.985
[8], 0.00457 µM	0.995
[8], 0.01372 µM	0.975
[8], 0.04115 µM	0.97
[8], 0.1235 µM	0.953
[8], 0.3704 µM	0.933
[8], 1.111 µM	0.705
[8], 3.333 µM	0.56
[8], 10 µM	0.405
[9], 0.00017 µM	0.9962
[9], 0.00051 µM	1.01
[9], 0.00152 µM	1
[9], 0.00457 µM	1.01
[9], 0.01372 µM	1.05
[9], 0.04115 µM	1.04
[9], 0.1235 µM	1.08
[9], 0.3704 µM	1.14
[9], 1.111 µM	1.19
[9], 3.333 µM	1.14
[9], 10 µM	1.01
[10], 0.00017 µM	1.04
[10], 0.00051 µM	1.02
[10], 0.00152 µM	1.03
[10], 0.00457 µM	1.04
[10], 0.01372 µM	0.984
[10], 0.04115 µM	1
[10], 0.1235 µM	0.985
[10], 0.3704 µM	1.02
[10], 1.111 µM	0.977
[10], 3.333 µM	0.9905
[10], 10 µM	0.758
[11], 0.00017 µM	1.08
[11], 0.00051 µM	1.09
[11], 0.00152 µM	1.11
[11], 0.00457 µM	1.12
[11], 0.01372 µM	1.12
[11], 0.04115 µM	1.12
[11], 0.1235 µM	1.12
[11], 0.3704 µM	1.15
[11], 1.111 µM	1.17
[11], 3.333 µM	1.09
[11], 10 µM	0.827
[12], 0.00017 µM	1.09
[12], 0.00051 µM	1.06
[12], 0.00152 µM	1.08
[12], 0.00457 µM	1.07
[12], 0.01372 µM	1.05
[12], 0.04115 µM	1.06
[12], 0.1235 µM	1.07
[12], 0.3704 µM	1.07
[12], 1.111 µM	1.07
[12], 3.333 µM	1.02
[12], 10 µM	0.671
